IC50 data for 15 molecules are collected here from US10519177B2, “Heterocyclic compounds and uses thereof” (Plexxikon Inc., priority 2013, dated 2019).

In assay [1] the test system is bromodomain. As to the kind of experiment: at least one of the bromodomain cell assays of Example 57. The settings on record: read-out: IC50 in at least one of the bromodomain cell assays. The format is cell-based.
In assay [2] the test system is MV-4-11 cells. As to the kind of experiment: Oncology cell growth assay MV-4-11 (CellTiter Glo). It is filed as cell-based. The text has this: Published bromodomain inhibitors JQ1 and iBET 151 have shown activity in variety of cancer cells such leukemia and lymphoma, multiple myeloma cells, NUT midline carcinoma and glioblastoma cells (Dawson M A et al. 2011; Delmore J E 2011; Chen Z et al. 2013; Filippakopoulos P et al. 2010; Mertz J A et al. 2011; Ott C J et al. 2012). In this study, we test compounds in different cancer cell lines. MV-4-11 and MOLM-13 are AML cell lines harboring a MLL-AF4 and MLL-AF9 translocation, respectively. MM.1S is a multiple myeloma cell line. SK-N-AS, IMR-32 and SK-N-BE(2) are neuroblastoma cell lines. IMR-32 and SK-N-BE(2) cell lines harbor MYCN amplifications.
MV-4-11, MM.1S, IMR-32, SK-N-AS and SK-N-BE(2) were obtained from ATCC (IL, USA) and MOLM-13 were purchased from DSMZ (Braunschweig, German). Cells are cultured as recommended by their sources. For growth inhibition studies 3000 cells are seeded in wells of a 96-well plate in 75 μL of culture media. After several hours, growth media containing compounds of formula (I) are added to the wells. Compound at a maximal concentration of 5 mM was serially diluted 1:3 for a total of 8 point titration with DMSO as a control. A 1 μL aliquot of each dilution point is added to 249 μL growth media and 75 μL is added to each well containing cells, providing 10 μM compound at the maximum concentration point. The final concentration of DMSO in all wells is 0.2%. Cells are incubated for 72 hours, and 25 μL of CellTiter Glo Reagent (Promega GA, USA) is added to each well. Plates are shaken for approximately 10 minutes and chemiluminescent signal is read on Tecan microplate reader. The measured luminescence correlates directly with cell number.
All data is normalized to the mean of eight DMSO high control wells on each plate. A four parameter curve fit of the following formula was then applied: Y=a+(b−a)/(1+(x/c)^d) Where ‘a’ is the minimum, ‘b’ is the maximum, ‘c’ is the pIC50 and ‘d’ is the Hill slope. […] Myc Reporter Assay
(In general: In ATP-based viability assays light output follows the ATP content of the culture.)

The target of assay [3] is BRD4-BD12 (1-477) (Homo sapiens (Human), UniProt O60885). Put plainly: Alphascreen binding assay BRD4-BD12. The note with it: BRD4(1 2) H4; read-out: Biochemical activity (IC50 μM) BRD4(1 2) H4. The procedure:
Binding of compounds of formula (I) with bromodomain 2, 3 4 was assessed using Alphascreen binding assay. The inhibition of the interaction between bromodomain and its acetylated target protein (Filippakopoulos P et al. 2012) was measured quantitatively using recombinant BRD proteins, an acetylated Histone 4 peptide and AlphaScreen™ technology. In absence of inhibition the BRD protein bound to AlphaScreen™ nickel chelate acceptor beads can interact with the acetylated Histone 4 peptide which is immobilized by the AlphaScreen™ Streptavidin coated beads. This interaction brings donor and acceptor beads in proximity. The close proximity allows the singlet oxygen produced by laser excitation of the donor beads to reach the acceptor beads and generate a luminescence signal.
Recombinant human bromodomains containing the N-terminal bromodomain (BRD2-BD1 (71-194), BRD3-BD1 (24-144) and BRD4-BD1 (44-164)) or dual bromodomains (BRD4-BD12 (1-477), BRD4-BD12 (1-472)) were prepared and purified as described in protein expression and purification session. The peptide is human Histone H41-21K5AcK8AcK12AcK16Ac-Biotin (Anaspec CA, USA).
Protocol for BRD2, BRD3 and BRD4 assay: All components are prepared in buffer composed of 50 mM HEPES pH 7.5, 100 mM NaCl, 0.01% bovine serum albumin (“BSA”), 0.01% Triton X-100, 2 mM dithiothreitol (“DTT”). 7 μL of Bromodomain protein and 7 μL of peptide are added to wells containing 1 μL of various concentrations of test compounds of formula (I) or DMSO vehicle in an Alphaplate (PerkinElmer GA, USA) and incubated for 1 hour at room temperature. 4 μL donor and acceptor bead mixture is then added with final concentrations of 7.5 μg/ml. 30 minutes after bead addition, Alpha signal is read on the Envision spectrometer (λEx 680 nm, λEm 520-620 nm). Final concentrations of bromodomain proteins and peptide are as shown below.
All data was normalized to the mean of 16 high and 16 low control wells on each plate. A four parameter curve fit of the following formula was then applied: Y=a+(b−a)/(1+(x/c)^d) Where ‘a’ is the minimum, ‘b’ is the maximum, ‘c’ is the pIC50 and ‘d’ is the Hill slope. Protein Expression and Purification
Recombinant human bromodomains containing the N-terminal bromodomain (BRD2-BD1 (71-194), BRD3-BD1 (24-144) and BRD4-BD1 (44-164)) or dual bromodomains (BRD4-BD12 (1-477), BRD4-BD12 (1-472)) were expressed in E. coli cells (in a modified pET vector) with an N-terminal six-His tag and purified using a combination of both IMAC (Ni-affinity) and size exclusion chromatography steps.
Recombinant BRD proteins were expressed using the E. coli strain BL21-CodonPlus (DE3) (Agilent Technologies CA, USA). Cells were grown in Terrific Broth (TB) media to an OD600 of 1.2 at 37° C. at which temperature was reduced to 25° C., protein was induced with 1.0 mM ispropyl-β-D-thiogalactopyranoside (“IPTG”) for 12-18 hours and harvested by centrifugation at 8000×g for 20 minutes. Cells were re-suspended in 0.1M K2PO4 pH 8.0, 250 mM NaCl, 10% Glycerol, 0.75% NP-40, 25 mM Imidazole, 5 mM beta-mercaptoethanol (“BME”) with 0.2 mg/ml Lysosyme, 2.0 mM phenylmethanesulfonyl fluoride (“PMSF”), 25 μg/ml DNAse I, incubated on ice for 30 minutes and lyzed with a cell disruptor (MicroFluidics MA, USA). The lysate was clarified by centrifugation at 20,000×g for 2 hours. The protein was captured with Ni-NTA resin (Life Technologies, USA). Contaminating proteins were washed off with 25 mM Tris-HCl pH 8.3, 250 mM NaCl, 12% Glycerol and 50 mM Imidazole. Following 3× wash steps, protein was eluted step wise using a 50 mM HEPES pH 7.5, 500 mM NaCl and 400 mM Imidazole. The protein was further purified using Gel Filtration column 26/600 Superdex 200 (GE Biosciences NJ, USA) in 50 mM HEPES pH 7.5, 250 mM NaCl. The protein was aliquoted and flash-frozen in liquid Nitrogen.
In general terms: Alpha assays give light when donor and acceptor beads are brought close together.

[4] abbreviates: at least one of the bromodomain cell assays described in Example 57.
[5] abbreviates: Homo sapiens, MV4-11, 72 h; read-out: Cell activity (IC50 μM) MV-4-11 3d-Growth.
[6] abbreviates: Homo sapiens, MV4-11, 72 h, read-out: Cell activity (IC50 μM) MV-4-11 3d-Growth.
Setting [7] is: Homo sapiens, MV4-11, 72 h; MV-4-11, 3d growth; read-out: Cell activity (IC50 μM) MV-4-11 3d-Growth.

Read-outs that look alike come from different tables or passages of the source.

What is called IC50 is the concentration needed to halve the response being measured.

Turning to `CNC(=O)c1ccc(-c2cnc3ccn(CC4CCC(F)(F)CC4)c3c2)cn1` [P-0359, 5-[1-[(4,4-difluorocyclohexyl)methyl]pyrrolo[3,2-b]pyridin-6-yl]-N-methyl-pyridine-2-carboxamide], the IC50 was under 10000 nM in assay [1] (setting [4]) and 10 to 200 µM in assay [2] (setting [5]). Regarding `Cc1noc(C)c1-c1cnc2c(-c3ccc(C(=O)O)cc3)cn(C(C)c3ccccn3)c2c1` (centres unmarked) [P-0369, 4-[6-(3,5-dimethylisoxazol-4-yl)-1-[1-(2-pyridyl)ethyl]pyrrolo[3,2-b]pyridin-3-yl]benzoic acid], the IC50 was under 10000 nM in assay [1] and under 1 µM in assay [2] (setting [6]). Turning to `CNC(=O)c1ccc(-c2cn(CC3(F)CCC(F)(F)CC3)c3cc(-c4c(C)noc4C)cnc23)cn1` [P-0380, 5-[6-(3,5-dimethylisoxazol-4-yl)-1-[(1,4,4-trifluorocyclohexyl)methyl]pyrrolo[3,2-b]pyridin-3-yl]-N-methyl-pyridine-2-carboxamide], the IC50 in assay [3] and in assay [2] (setting [5]) was under 1 µM in each case. In the case of `Cc1noc(C)c1-c1cnc2c(-c3ccccc3C(=O)O)cn(CC3CCC(F)(F)CC3)c2c1` [P-0398, 2-[1-[(4,4-difluorocyclohexyl)methyl]-6-(3,5-dimethylisoxazol-4-yl)pyrrolo[3,2-b]pyridin-3-yl]benzoic acid], the IC50 in assay [3] and in assay [2] (setting [5]) was under 1 µM in each case.

Take `Cc1noc(C)c1-c1cnc2c(-c3ccc(C(=O)O)cc3)cn([C@H](C)c3ccccn3)c2c1` [P-0510, 4-[6-(3,5-dimethylisoxazol-4-yl)-1-[(1R)-1-(2-pyridyl)ethyl]pyrrolo[3,2-b]pyridin-3-yl]benzoic acid]: the IC50 in assay [1] is under 10000 nM; in assay [2] (setting [6]), under 1 µM.

In the case of `Cc1noc(C)c1-c1cnc2c(-c3ccc(C(=O)O)cc3)cn([C@@H](C)c3ccccn3)c2c1` [P-0511, 4-[6-(3,5-dimethylisoxazol-4-yl)-1-[(1S)-1-(2-pyridyl)ethyl]pyrrolo[3,2-b]pyridin-3-yl]benzoic acid], the IC50 is under 10000 nM in assay [1] and under 1 µM in assay [2] (setting [6]). For the molecule `Cc1noc(C)c1-c1cnc2c(-c3ccc(C(=O)O)cc3)cn(CC3CC4(CCC4)C3)c2c1` [P-0603, 4-[6-(3,5-dimethylisoxazol-4-yl)-1-(spiro[3.3]heptan-6-ylmethyl)pyrrolo[3,2-b]pyridin-3-yl]benzoic acid], the IC50 was under 10000 nM in assay [1] (setting [4]) and under 1 µM in assay [2] (setting [7]). The corresponding values for `[2H]c1c([2H])c([2H])c(C([2H])(n2cc(-c3ccc(C(=O)OC)cc3)c3ncc(-c4c(C)noc4C)cc32)C([2H])([2H])[2H])c([2H])c1[2H]` (centres unmarked) [P-0605, methyl 4-[6-(3,5-dimethylisoxazol-4-yl)-1-[1,2,2,2-tetradideuterio-1-(2,3,4,5,6-pentadeuteriophenyl)ethyl]pyrrolo[3,2-b]pyridin-3-yl]benzoate] are under 10000 nM and under 1 µM. The corresponding values for `[2H]c1c([2H])c([2H])c(C([2H])(n2cc(-c3cnn(CC(F)(F)F)c3)c3ncc(-c4c(C)noc4C)cc32)C([2H])([2H])[2H])c([2H])c1[2H]` (centres unmarked) [P-0606] are under 10000 nM and under 1 µM. In the same order, the values of `[2H]c1c([2H])c([2H])c(C([2H])(n2cc(-c3ccc(C(=O)O)cc3)c3ncc(-c4c(C)noc4C)cc32)C([2H])([2H])[2H])c([2H])c1[2H]` (centres unmarked) [P-0607, 4-[6-(3,5-dimethylisoxazol-4-yl)-1-[1,2,2,2-tetradeuterio-1-(2,3,4,5,6-pentadeuteriophenyl)ethyl]pyrrolo[3,2-b]pyridin-3-yl]benzoic acid] are under 10000 nM and under 1 µM. With `Cc1noc(C)c1-c1cnc2c(-c3ccc(C(F)F)cc3)cn(CC3CCC(F)(F)CC3)c2c1` [P-0608, 4-[1-[(4,4-difluorocyclohexyl)methyl]-3-[4-(difluoromethyl)phenyl]pyrrolo[3,2-b]pyridin-6-yl]-3,5-dimethyl-isoxazole], the IC50 is under 10000 nM in assay [1] (setting [4]) and under 1 µM in assay [2] (setting [7]). As for `Cc1ccc(-c2cn([C@@H](C)c3ccccn3)c3cc(-c4c(C)noc4C)cnc23)cc1` [P-0900, 3,5-dimethyl-4-[3-(p-tolyl)-1-[(1S)-1-(2-pyridyl)ethyl]pyrrolo[3,2-b]pyridin-6-yl]isoxazole], the IC50 in assay [3] and in assay [2] (setting [7]) was under 1 µM throughout. `Cc1ccc(-c2cn(C(c3ccccc3)c3ccccn3)c3cc(-c4c(C)noc4C)cnc23)cc1` (centres unmarked) [P-0901, 3,5-dimethyl-4-[1-[phenyl(2-pyridyl)methyl]-3-(p-tolyl)pyrrolo[3,2-b]pyridin-6-yl]isoxazole]: the IC50 in assay [3] and in assay [2] (setting [7]) was under 1 µM in each case. As to `COC(=O)Cc1ccc(-c2cn(C(c3ccccc3)c3ccccn3)c3cc(-c4c(C)noc4C)cnc23)cc1` (centres unmarked) [P-0902, methyl 2-[4-[6-(3,5-dimethylisoxazol-4-yl)-1-[phenyl(2-pyridyl)methyl]pyrrolo[3,2-b]pyridin-3-yl]phenyl]acetate], the IC50 in assay [3] and in assay [2] (setting [7]) was under 1 µM throughout. Consider `COC(=O)c1ccc(-c2cn(Cc3ccccn3)c3cc(-c4c(C)noc4C)cnc23)cc1OC` [P-0954, methyl 4-[6-(3,5-dimethylisoxazol-4-yl)-1-(2-pyridylmethyl)pyrrolo[3,2-b]pyridin-3-yl]-2-methoxy-benzoate], for which the IC50 in assay [3] is under 1 µM.
